Measurements as given in US20060217352A1, “Method for treating thrombosis” (Kowa Co., Ltd., priority 2005, published 2006).

How the values were obtained:
clot formation = assay: Thromboelastograph maximal amplitude (MA) of clot formation after 14-day oral administration to guinea pigs; type: in vivo, Hartley male guinea pigs; details: guinea pig, oral once a day for 14 days, pitavastatin calcium 3 mg/kg and/or aspirin 100 mg/kg; for Maximal amplitude (MA) of clot formation: blood after 18 hours of fasting, average ± standard deviation; for Maximal amplitude (MA) of clot formation, relative value: relative to control group (100)
Description: The animals used in the test were 6 week old Hartley male guinea pigs (Japan SLC, Inc.), and these animals were kept throughout the test period in a breeding chamber with controlled day and night cycle (light period under illumination of room light, 7 am to 7 pm) at a temperature of 23±3° C. and a humidity of 55±15%.
24 guinea pigs were divided into 4 groups (5 or 6 animals in each group), namely, control group (with no drug administration), the group solely administered with pitavastatin calcium (3 mg/kg), the group solely administered with aspirin (100 mg/kg), and the group administered with a combination of pitavastatin calcium (3 mg/kg) and aspirin (100 mg/kg).

whole blood coagulation = assay: Thromboelastograph whole blood coagulation time (r+k value) after 14-day oral administration to guinea pigs; details: guinea pig, oral once a day for 14 days, pitavastatin calcium 3 mg/kg and/or aspirin 100 mg/kg; for Whole blood coagulation time (r + k value): blood after 18 hours of fasting, average ± standard deviation; for Whole blood coagulation time (r + k value), relative value: relative to control group (100)

| SMILES | Maximal amplitude (MA) of clot formation (clot formation) [mm] | Maximal amplitude (MA) of clot formation, relative value (clot formation) [%] | Whole blood coagulation time (r + k value) (whole blood coagulation) [min] | Whole blood coagulation time (r + k value), relative value (whole blood coagulation) [%] |
| --- | --- | --- | --- | --- |
| CC(=O)Oc1ccccc1C(=O)O [Aspirin, acetyl salitylic acid] | 71.0 ± 3.1 | 98 | 12.7 ± 1.6 | 109 |
| O=C(O)C[C@H](O)C[C@H](O)/C=C/c1c(C2CC2)nc2ccccc2c1-c1ccc(F)cc1 [Pitavastatin, (3R,5S,6E)-7-[2-cyclopropyl-4-(4-fluorophenyl)-3-quinolyl]-3,5-dihydroxy-6-heptenoic acid] | 71.8 ± 5.0 | 99 | 12.8 ± 2.4 | 110 |
